Assay results: a compilation of properties of binary mixtures (doi:10.1021/je300622r)

Assay: xn = mol fraction of the nth substance listed
Settings: 101 kPa

CCOS(=O)(=O)[O-].CC[n+]1ccn(C)c1 + O
viscosity [mPa·s]
Settings | 283.15 K | 293.15 K | 303.15 K | 313.15 K | 323.15 K | 333.15 K | 343.15 K
x2 = 0.0023 | 242.3 | – | 81 | 52.62 | 36.24 | 26.16 | –
x2 = 0.1225 | 171.3 | – | 62.11 | 41.51 | 29.17 | 21.46 | 16.37
x2 = 0.1966 | – | 81.3 | 52.09 | 35.42 | 25.3 | 18.81 | –
x2 = 0.427 | 62.49 | 40.03 | 27.26 | 19.53 | – | 11.24 | –
x2 = 0.6124 | – | 21.82 | 15.38 | 11.33 | 8.663 | 6.824 | 5.518
x2 = 0.798 | 14.52 | 10.01 | 7.24 | 5.453 | 4.246 | 3.402 | 2.791
x2 = 0.8983 | 6.801 | 4.853 | 3.618 | 2.793 | 2.221 | 1.813 | 1.518

CC[n+]1ccn(C)c1.COS(=O)(=O)[O-] + O
viscosity [mPa·s]
Settings | 278.15 K | 288.15 K | 298.15 K | 308.15 K | 318.15 K | 328.15 K | 338.15 K
x2 = 0.0023 | 246.3 | – | – | 54.77 | – | – | 20.53
x2 = 0.0887 | 226 | 129.2 | – | 53.07 | 37.01 | 26.98 | 20.42
x2 = 0.2235 | 164.6 | 97.7 | 62.41 | – | 30.1 | 22.43 | 17.93
x2 = 0.4163 | 81.88 | 51.53 | 34.54 | – | 17.94 | 13.72 | –
x2 = 0.6106 | 36.75 | 24.28 | 16.97 | 12.4 | 9.404 | 7.362 | –
x2 = 0.7999 | 14.47 | 9.971 | 7.21 | 5.427 | 4.222 | 3.378 | 2.767
x2 = 0.8948 | 6.791 | – | 3.635 | – | 2.247 | 1.836 | 1.534
